{"source": "patent US10316017B2", "about": "“COT modulators and methods of use thereof” (Gilead Sciences, Inc., priority 2015, dated 2019)", "key": {"[1]": {"test_system": "TNFα production in LPS-stimulated human monocytes", "experiment": "Cot Monocyte TNFα Cell Based Assay", "details": "Homo sapiens, Monocyte, LPS-stimulated human monocytes, TNFα TR-FRET; read-out: EC50 TNF", "method_in_brief": "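TR-FRET read-out of total secreted TNFα, normalized as % control (unstimulated = 0%, LPS-stimulated = 100%). Cells (5,000/well) were exposed to compound 1 h at 37 °C, then to 50 pg/ml LPS for a further 4 h.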"}, "[2]": {"molecular_target": "T1, human Cot catalytic domain (30-397 amino acids) (Homo sapiens, UniProt P41279)", "T1 construct": "Purified recombinant human Cot catalytic domain (30-397 amino acids) was purchased from Cama Biosciences; purchased Cama Biosciences (so in the source)", "T1 sequence (P41279 30-397)": "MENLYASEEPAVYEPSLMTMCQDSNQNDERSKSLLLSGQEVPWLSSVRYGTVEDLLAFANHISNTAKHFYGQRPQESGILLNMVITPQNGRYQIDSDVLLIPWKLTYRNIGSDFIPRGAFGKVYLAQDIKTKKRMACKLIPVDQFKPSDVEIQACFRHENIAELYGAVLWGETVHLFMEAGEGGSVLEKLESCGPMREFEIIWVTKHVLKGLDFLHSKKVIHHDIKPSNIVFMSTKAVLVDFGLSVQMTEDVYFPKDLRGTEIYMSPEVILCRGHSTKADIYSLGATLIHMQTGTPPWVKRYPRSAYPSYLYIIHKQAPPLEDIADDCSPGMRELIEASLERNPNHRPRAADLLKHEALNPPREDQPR", "experiment": "High Throughput Cot Biochemical Assay (KinEASE TR-FRET)", "details": "Cot KinEASE TR-FRET, 400 μM ATP; read-out: IC50 HTRF", "method_in_brief": "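TR-FRET readout: Eu-labeled phospho-specific antibody binds XL665-tagged STK3 peptide after phosphorylation by Cot (aa 30-397, 5 nM). Conditions: 400 μM ATP, 1 μM peptide, MOPS pH 7.0 buffer with MgOAc, DTT, BSA, NP-40, glycerol; 0.1% DMSO.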"}}}
{"smiles": "N#CCC[C@@H](Nc1c(C#N)cnc2c(C#N)cc(N[C@H](c3cn(C4CC4)nn3)c3ccccc3Cl)cc12)c1ccccc1", "note": "[Example 945, 6-(((S)-(2-chlorophenyl)(1-cyclopropyl-1H-1,2,3-triazol-4-yl)methyl)amino)-4-(((R)-3-cyano-1-phenylpropyl)amino)quinoline-3,8-dicarbonitrile]", "values": [{"measurement": "EC50", "setting": "[1]", "result": 29, "unit": "nM"}, {"measurement": "IC50", "setting": "[2]", "result": 2, "unit": "nM"}]}
{"smiles": "[2H][C@](Nc1cc(Cl)c2ncc(C#N)c(Nc3cccc(Cl)c3C(C)=O)c2c1)(c1ccc(F)cc1)c1cn(C2CC2)nn1", "note": "[Example 946, (S)-4-((2-acetyl-3-chlorophenyl)amino)-8-chloro-6-(((1-cyclopropyl-1H-1,2,3-triazol-4-yl) (4-fluorophenyl)methyl-d)amino)quinoline-3-carbonitrile]", "values": [{"measurement": "EC50", "setting": "[1]", "result": "≥ 1000", "unit": "nM"}, {"measurement": "IC50", "setting": "[2]", "result": 745, "unit": "nM"}]}
{"smiles": "[2H][C@](Nc1cc(Cl)c2ncc(C#N)c(Nc3cccc(Cl)c3)c2c1)(c1ccc(F)cc1)c1cn(C2CC2)nn1", "note": "[Example 947, (S)-8-chloro-4-((3-chlorophenyl)amino)-6-(((1-cyclopropyl-1H-1,2,3-triazol-4-yl)(4-fluorophenyl)methyl-d)amino)quinoline-3-carbonitrile]", "values": [{"measurement": "EC50", "setting": "[1]", "result": 282, "unit": "nM"}, {"measurement": "IC50", "setting": "[2]", "result": 14, "unit": "nM"}]}
{"smiles": "CC[C@@H](Nc1c(C#N)cnc2c(C#N)cc(N[C@@H](c3cccc(C(=O)NC)c3)c3cn(C4CC4)nn3)cc12)c1ccccc1", "note": "[Example 948, 3-((S)-(1-cyclopropyl-1H-1,2,3-triazol-4-yl) ((3,8-dicyano-4-(((R)-1-phenylpropyl)amino)quinolin-6-yl)amino)methyl)-N-methylbenzamide]", "values": [{"measurement": "EC50", "setting": "[1]", "result": 78, "unit": "nM"}, {"measurement": "IC50", "setting": "[2]", "result": 1, "unit": "nM"}]}
{"smiles": "N#CCC[C@@H](Nc1c(C#N)cnc2c(C#N)cc(N[C@@H](c3ccccc3)c3cn(C4CC4)nn3)cc12)c1ccccc1", "note": "[Example 949, 4-(((R)-3-cyano-1-phenylpropyl)amino)-6-(((S)-(1-cyclopropyl-1H-1,2,3-triazol-4-yl)(phenyl)methyl)amino) quinoline-3,8-dicarbonitrile]", "values": [{"measurement": "EC50", "setting": "[1]", "result": 19, "unit": "nM"}, {"measurement": "IC50", "setting": "[2]", "result": 1, "unit": "nM"}]}
{"smiles": "[2H][C@](Nc1cc(-c2cncnc2)c2ncc(C#N)c(N[C@H](CCC(=O)O)c3ccccc3)c2c1)(c1ccc(F)cc1)c1cn(C2CC2)nn1", "note": "[Example 950, (R)-4-((3-cyano-6-(((S)-(1-cyclopropyl-1H-1,2,3-triazol-4-yl)(4-fluorophenyl)methyl-d)amino)-8-(pyrimidin-5-yl)quinolin-4-yl)amino)-4-phenylbutanoic acid]", "values": [{"measurement": "EC50", "setting": "[1]", "result": "≥ 1000", "unit": "nM"}, {"measurement": "IC50", "setting": "[2]", "result": "≥ 10000", "unit": "nM"}]}
{"smiles": "[2H][C@@](Nc1cc(-c2cncnc2)c2ncc(C#N)c(N[C@H](CCC(=O)O)c3ccccc3)c2c1)(c1cn(C2CC2)nn1)c1ccccc1Cl", "note": "[Example 951, (R)-4-((6-(((S)-(2-chlorophenyl)(1-cyclopropyl-1H-1,2,3-triazol-4-yl)methyl-d)amino)-3-cyano-8-(pyrimidin-5-yl)quinolin-4-yl)amino)-4-phenylbutanoic acid]", "values": [{"measurement": "EC50", "setting": "[1]", "result": "≥ 1000", "unit": "nM"}, {"measurement": "IC50", "setting": "[2]", "result": "≥ 10000", "unit": "nM"}]}
{"smiles": "CC(C)(C)CNc1c(C#N)cnc2c(C#N)cc(N[C@H](c3cn(C4(C#N)CCC4)nn3)c3ccccc3Cl)cc12", "note": "[Example 952, (S)-6-(((2-chlorophenyl)(1-(1-cyanocyclobutyl)-1H-1,2,3-triazol-4-yl)methyl)amino)-4-(neopentylamino)quinoline-3,8-dicarbonitrile]", "values": [{"measurement": "EC50", "setting": "[1]", "result": 134, "unit": "nM"}, {"measurement": "IC50", "setting": "[2]", "result": 8, "unit": "nM"}]}
{"smiles": "[2H][C@@](Nc1cc(I)c2ncc(C#N)c(NCC(C)(C)C)c2c1)(c1cn(C2CC2)nn1)c1ccccc1Cl", "note": "[Example 953, (S)-6-(((2-chlorophenyl)(1-cyclopropyl-1H-1,2,3-triazol-4-yl)methyl-d)amino)-8-iodo-4-(neopentylamino)quinoline-3-carbonitrile]", "values": [{"measurement": "EC50", "setting": "[1]", "result": "≥ 1000", "unit": "nM"}, {"measurement": "IC50", "setting": "[2]", "result": 111, "unit": "nM"}]}
{"smiles": "CCN1CCC(n2cc([C@@H](Nc3cc(Cl)c4ncc(C#N)c(NCC(C)(C)C)c4c3)c3ccc(Cl)cc3)nn2)CC1", "note": "[Example 954, (S)-8-chloro-6-(((4-chlorophenyl)(1-(1-ethylpiperidin-4-yl)-1H-1,2,3-triazol-4-yl)methyl)amino)-4-(neopentylamino)quinoline-3-carbonitrile]", "values": [{"measurement": "EC50", "setting": "[1]", "result": 130, "unit": "nM"}, {"measurement": "IC50", "setting": "[2]", "result": 5, "unit": "nM"}]}
{"smiles": "CCN1CCC(n2cc([C@@H](Nc3cc(Cl)c4ncc(C#N)c(N[C@H](CCC#N)c5ccccc5)c4c3)c3ccc(Cl)cc3)nn2)CC1", "note": "[Example 955, 8-chloro-6-(((S)-(4-chlorophenyl)(1-(1-ethylpiperidin-4-yl)-1H-1,2,3-triazol-4-yl)methyl)amino)-4-(((R)-3-cyano-1-phenylpropyl)amino)quinoline-3-carbonitrile]", "values": [{"measurement": "EC50", "setting": "[1]", "result": 31, "unit": "nM"}, {"measurement": "IC50", "setting": "[2]", "result": 2, "unit": "nM"}]}
{"smiles": "CC(C)(C)CNc1c(C#N)cnc2c(C#N)cc(N[C@H](c3cn(C4(C#N)CC4)nn3)c3ccccc3Cl)cc12", "note": "[Example 956, (S)-6-(((2-chlorophenyl)(1-(1-cyanocyclopropyl)-1H-1,2,3-triazol-4-yl)methyl)amino)-4-(neopentylamino)quinoline-3,8-dicarbonitrile]", "values": [{"measurement": "EC50", "setting": "[1]", "result": 61, "unit": "nM"}, {"measurement": "IC50", "setting": "[2]", "result": 5, "unit": "nM"}]}
{"smiles": "CC(C)(C)CNc1c(C#N)cnc2c(C#N)cc(N[C@H](c3cn(C4(C(N)=O)CC4)nn3)c3ccccc3Cl)cc12", "note": "[Example 957, (S)-1-(4-((2-chlorophenyl)((3,8-dicyano-4-(neopentylamino)quinolin-6-yl)amino)methyl)-1H-1,2,3-triazol-1-yl)cyclopropane-1-carboxamide]", "values": [{"measurement": "EC50", "setting": "[1]", "result": 170, "unit": "nM"}, {"measurement": "IC50", "setting": "[2]", "result": 3, "unit": "nM"}]}
{"smiles": "[2H]C(Nc1cc(Cl)c2ncc(C#N)c(NCC(C)(C)C)c2c1)(c1cn(C2(C3CC3)CC2)nn1)c1ccccc1Cl", "note": "(stereo not drawn) [Example 958, 6-(((1-([1,1'-bi(cyclopropan)]-1-yl)-1H-1,2,3-triazol-4-yl)(2-chlorophenyl)methyl-d)amino)-8-chloro-4-(neopentylamino)quinoline-3-carbonitrile]", "values": [{"measurement": "EC50", "setting": "[1]", "result": 460, "unit": "nM"}, {"measurement": "IC50", "setting": "[2]", "result": 31, "unit": "nM"}]}
{"smiles": "[2H][C@@](Nc1cc(Cl)c2ncc(C#N)c(NCC(C)(C)C)c2c1)(c1cn(C2(c3cccnc3)CC2)nn1)c1ccccc1Cl", "note": "[Example 960, 8-chloro-6-(((2-chlorophenyl)(1-(1-(pyridin-3-yl)cyclopropyl)-1H-1,2,3-triazol-4-yl)methyl-d)amino)-4-(neopentylamino)quinoline-3-carbonitrile]", "values": [{"measurement": "EC50", "setting": "[1]", "result": 86, "unit": "nM"}, {"measurement": "IC50", "setting": "[2]", "result": 12, "unit": "nM"}]}
{"smiles": "N#CCC[C@@H](Nc1c(C#N)cnc2c(C#N)cc(N[C@@H](c3ccccc3)c3cn(C4(C#N)CC4)nn3)cc12)c1ccccc1", "note": "[Example 961, 4-(((R)-3-cyano-1-phenylpropyl)amino)-6-(((S)-(1-(1-cyanocyclopropyl)-1H-1,2,3-triazol-4-yl)(phenyl)methyl)amino) quinoline-3,8-dicarbonitrile]", "values": [{"measurement": "EC50", "setting": "[1]", "result": 21, "unit": "nM"}, {"measurement": "IC50", "setting": "[2]", "result": 1, "unit": "nM"}]}
{"smiles": "CC(C)(C)CNc1c(C#N)cnc2c(C#N)cc(N[C@H](c3cn(C4(C)CC4)nn3)c3ccccc3Cl)cc12", "note": "[Example 962, (S)-6-(((2-chlorophenyl)(1-(1-methylcyclopropyl)-1H-1,2,3-triazol-4-yl)methyl)amino)-4-(neopentylamino)quinoline-3,8-dicarbonitrile]", "values": [{"measurement": "EC50", "setting": "[1]", "result": 116, "unit": "nM"}, {"measurement": "IC50", "setting": "[2]", "result": 7, "unit": "nM"}]}
{"smiles": "CC(C)(C)CNc1c(C#N)cnc2c(C#N)cc(N[C@H](c3cn(CC(N)=O)nn3)c3ccccc3Cl)cc12", "note": "[Example 963, (S)-2-(4-((2-chlorophenyl) ((3,8-dicyano-4-(neopentylamino)quinolin-6-yl)amino)methyl)-1H-1,2,3-triazol-1-yl)acetamide]", "values": [{"measurement": "EC50", "setting": "[1]", "result": 777, "unit": "nM"}, {"measurement": "IC50", "setting": "[2]", "result": 3, "unit": "nM"}]}
